According to patent publication US12492202B2, “Macrocyclic PAD4 inhibitors useful as immunosuppressant” (BRISTOL-MYERS SQUIBB COMPANY, priority 2020, dated 2025):

Target: human PAD4 (hPAD4) (Homo sapiens (Human), UniProt Q9UM07)
Experiment: RFMS Human PAD4 Functional Assay
Assay type: biochemical
Details: rapid-fire mass spectrum (RFMS) assay; 5 nM hPAD4 enzyme, 250 μM BAEE, 30 min preincubation at 37° C.

human PAD4 (hPAD4), sequence (Q9UM07 whole entry): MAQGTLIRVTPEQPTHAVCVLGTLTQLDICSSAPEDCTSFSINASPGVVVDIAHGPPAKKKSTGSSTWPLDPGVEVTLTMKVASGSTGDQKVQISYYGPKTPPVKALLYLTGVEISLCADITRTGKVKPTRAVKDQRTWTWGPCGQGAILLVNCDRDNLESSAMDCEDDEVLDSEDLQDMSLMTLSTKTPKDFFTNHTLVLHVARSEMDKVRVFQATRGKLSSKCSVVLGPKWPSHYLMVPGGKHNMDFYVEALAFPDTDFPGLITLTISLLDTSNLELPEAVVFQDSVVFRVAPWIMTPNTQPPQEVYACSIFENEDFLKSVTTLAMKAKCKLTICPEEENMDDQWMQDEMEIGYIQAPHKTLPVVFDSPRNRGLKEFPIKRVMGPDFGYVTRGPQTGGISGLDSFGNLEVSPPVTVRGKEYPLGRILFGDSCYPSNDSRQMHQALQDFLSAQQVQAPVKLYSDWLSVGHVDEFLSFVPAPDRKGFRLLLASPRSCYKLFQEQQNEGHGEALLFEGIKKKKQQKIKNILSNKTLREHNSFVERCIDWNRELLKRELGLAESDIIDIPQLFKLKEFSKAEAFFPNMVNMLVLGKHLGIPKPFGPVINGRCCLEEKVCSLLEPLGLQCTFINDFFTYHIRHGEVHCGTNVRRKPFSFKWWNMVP

IC50	SMILES
59 nM	COc1cc(C(=O)N2CC3CCC2[C@@H]3N)cc2nc3n(c12)Cc1cc(C(N)=O)cc(c1)-c1ccccc1CCCCn1c-3cc2cccnc21 (stereo partly drawn) [Example 29, 2^5-((1R,4R,7R)-7-amino-2-azabicyclo[2.2.1]heptane-2-carbonyl)-2^7-methoxy-1^1H,2^1H-1,2(2,1)-dipyrrolo[2,3-b]pyridina-4(1,3),5(1,2)-dibenzenacyclononaphane-4^5-carboxamide]
112 nM	COc1cc(C(=O)N2CC3CCC2[C@@H]3N)cc2nc3n(c12)Cc1cc(ccn1)-c1ccccc1CCCCn1c-3cc2cccnc21 (stereo partly drawn) [Example 32, ((1R,4R,7R)-7-amino-2-azabicyclo[2.2.1]heptan-2-yl)(2^7-methoxy-1^1H,2^1H-1,2(2,1)-dipyrrolo[2,3-b]pyridina-4(2,4)-pyridina-5(1,2)-benzenacyclononaphane-2^5-yl)methanone]
7 nM	COc1cc(C(=O)N2CC3CCC2[C@@H]3N)cc2nc3n(c12)Cc1cncc(c1)-c1ccccc1OCCCn1c-3cc2cccnc21 (stereo partly drawn) [Example 36, ((1R,4R,7R)-7-amino-2-azabicyclo[2.2.1]heptan-2-yl)(2^7-methoxy-1^1H,2^1H-6-oxa-1,2(2,1)-dipyrrolo[2,3-b]pyridina-4(3,5)-pyridina-5(1,2)-benzenacyclononaphane-2^5-yl)methanone]
19 nM	COc1cc(C(=O)N2C[C@H]3CC[C@@H]2[C@@H]3N)cc2nc3n(c12)CC1CC(=O)N(C1)c1ccccc1CCCCn1c-3cc2cccnc21 (single isomer, unassigned) [Example 37]
88 nM	COc1cc(C(=O)N2C[C@H]3CC[C@@H]2[C@@H]3N)cc2nc3n(c12)Cc1cccc(c1)[C@H](O)[C@H](O)CCCCn1c-3cc2cccnc21 (relative stereo) [Example 47, ((1R,4R,7R)-7-amino-2-azabicyclo[2.2.1]heptan-2-yl)((5S,6R)-5,6-dihydroxy-27-methoxy-1^1H,2^1H-1,2(2,1)-dipyrrolo[2,3-b]pyridina-4(1,3)-benzenacyclodecaphane-25-yl)methanone]
191 nM	COc1cc(C(=O)N2C[C@H](N)C[C@@H](F)C2)cc2nc3n(c12)Cc1cccc(c1)-c1ccccc1CCCCn1c-3cc2ccccc21 [Example 21, ((3R,5R)-3-amino-5-fluoropiperidin-1l-yl)(2^7-methoxy-1^1IH,2^1H-2(2,1)-benzo[d]imidazola-1(2,1)-indola-4(1,3),5(1,2)-dibenzenacyclononaphane-2^5-yl)methanone]
62 nM	COc1cc(C(=O)N2C[C@H](N)C[C@@H](F)C2)cc2nc3n(c12)Cc1cc(C(N)=O)cc(c1)-c1ccccc1CCCCn1c-3cc2cccnc21 [Example 28, 2^5-((3R,5R)-3-amino-5-fluoropiperidine-1-carbonyl)-2^7-methoxy-1^1H,2^1H-1,2(2,1)-dipyrrolo[2,3-b]pyridina-4(1,3),5(1,2)-dibenzenacyclononaphane-4^5-carboxamide]
92 nM	COc1cc(C(=O)N2C[C@H]3CC[C@@H]2[C@@H]3N)cc2nc3n(c12)Cc1cccc(c1)[C@H](O)[C@H](O)CCCCn1c-3cc2cccnc21 (relative stereo) [Example 48, ((1R,4R,7R)-7-amino-2-azabicyclo[2.2.1]heptan-2-yl)((5S,6R)-5,6-dihydroxy-27-methoxy-1^1H,2^1H-1,2(2,1)-dipyrrolo[2,3-b]pyridina-4(1,3)-benzenacyclodecaphane-25-yl)methanone]
19 nM	COc1cc(C(=O)N2C[C@H](N)C[C@@H](F)C2)cc2nc3n(c12)Cc1cnn(c1)-c1ccccc1OCCCn1c-3cc2ccccc21 [Example 3, ((3R,5R)-3-Amino-5-fluoropiperidin-1-yl)((Z)-2^7-methoxy-1^1H,2^1H,4^1H-6-oxa-2(2,1)-benzo[d]imidazola-1(2,1)-indola-4(4,1)-pyrazola-5(1,2)-benzenacyclononaphane-2^5-yl)methanone]
49.7 nM	COc1cc(C(=O)N2C[C@H]3CC[C@@H]2[C@@H]3N)cc2nc3n(c12)Cc1cccc(c1)CCCCCCn1c-3cc2cccnc21 [Example 42, ((1R,4R,7R)-7-amino-2-azabicyclo[2.2.1]heptan-2-yl)(27-methoxy-11H,21H-1,2(2,1)-dipyrrolo[2,3-b]pyridina-4(1,3)-benzenacyclodecaphane-25-yl)methanone]
255 nM	COc1cc(C(=O)N2CC3CCC2[C@@H]3N)cc2nc3n(c12)Cc1cnn(c1)CCCCCn1c-3cc2ccccc21 (stereo partly drawn) [Example 1, ((7R)-7-Amino-2-azabicyclo[2.2.1]heptan-2-yl)((Z)-2^7-methoxy-1^1H,2^1H,4^1H-2(2,1)-benzo[d]imidazola-1(2,1)-indola-4(4,1)-pyrazolacyclononaphane-2^5-yl)methanone]
11 nM	COc1cc(C(=O)N2CC3CCC2[C@@H]3N)cc2nc3n(c12)Cc1ccn(n1)-c1ccccc1OCCCn1c-3cc2cccnc21 (stereo partly drawn) [Example 17, ((7R)-7-amino-2-azabicyclo[2.2.1]heptan-2-yl)((E)-2^7-methoxy-1^1H,2^1H,4^1H-6-oxa-1,2(2,1)-dipyrrolo[2,3-b]pyridina-4(3,1)-pyrazola-5(1,2)-benzenacyclononaphane-2^5-yl) methanone]
14 nM	COc1cc(C(=O)N2C[C@H](N)C[C@@H](F)C2)cc2nc3n(c12)Cc1cncc(c1)-c1ccccc1OCCCn1c-3cc2cccnc21 [Example 35, ((3R,5R)-3-amino-5-fluoropiperidin-1-yl)(2^7-methoxy-1^1H,2^1H-6-oxa-1,2(2,1)-dipyrrolo[2,3-b]pyridina-4(3,5)-pyridina-5(1,2)-benzenacyclononaphane-2^5-yl)methanone]
44.8 nM	COc1cc(C(=O)N2C[C@H]3CC[C@@H]2[C@@H]3N)cc2nc3n(c12)Cc1cccc(c1)[C@H](O)[C@H](O)CCCCn1c-3cc2cccnc21 (single isomer, unassigned) [Example 46]
44.9 nM	COc1cc(C(=O)N2CC3CCC2[C@@H]3N)cc2nc3n(c12)Cc1cccc(c1)/C=C\CCCCn1c-3cc2cccnc21 (stereo in doubt) [Example 41, ((1R,4R,7R)-7-Amino-2-azabicyclo[2.2.1]heptan-2-yl)((Z)-27-methoxy-11H,21H-1,2(2,1)-dipyrrolo[2,3-b]pyridina-4(1,3)-benzenacyclodecaphan-5-en-25-yl)methanone]
